According to patent US9296711B2, “Substituted isoxazole amide compounds as inhibitors of stearoyl-CoA desaturase 1 (SCD1)” (Hoffman-La Roche Inc., priority 2012, dated 2016):

target: T1, SCD1 (Mus musculus, UniProt P13516); experiment: SCD assay: release of tritiated water from desaturation of 9,10-3H-stearoyl CoA by mouse liver microsomes; format: biochemical; settings: mouse liver microsomes as SCD source; 300 nM (9,10)3H-stearoyl CoA; 25 minutes at room temperature; read-out: IC50 (in vitro inhibition of SCD1)
T1 construct: Mouse liver microsomes, prepared from mice fed a high-carbohydrate diet, were a source of the SCD; from tissue; host or cells: mouse liver microsomes (mice fed a high-carbohydrate diet)
T1 sequence (P13516 1-355): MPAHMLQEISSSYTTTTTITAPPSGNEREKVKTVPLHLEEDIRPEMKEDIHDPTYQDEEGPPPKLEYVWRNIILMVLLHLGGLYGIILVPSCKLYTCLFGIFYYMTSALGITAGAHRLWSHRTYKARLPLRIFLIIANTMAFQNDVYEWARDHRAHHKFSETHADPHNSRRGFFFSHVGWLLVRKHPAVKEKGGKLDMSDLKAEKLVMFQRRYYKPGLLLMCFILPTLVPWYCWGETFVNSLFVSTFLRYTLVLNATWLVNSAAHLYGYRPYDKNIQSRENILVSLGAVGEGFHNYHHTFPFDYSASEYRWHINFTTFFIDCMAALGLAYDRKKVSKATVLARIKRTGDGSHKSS
Excerpt: Stearoyl CoA desaturase activity was monitored by a modification of the acyl carrier protein assay described by B. R. Talamo and K. Bloch in Anal. Biochem. 1968, 29, 300-304. The SCD assay monitors the release of tritiated water from the desaturation of 9,10-^3H-stearoyl CoA.
Mouse liver microsomes, prepared from mice fed a high-carbohydrate diet, were a source of the SCD and cyt b5 and cyt b5 reductase, necessary accessory proteins for the coupled reaction. Reaction mixtures for compound titrations contained 50 mM Tris HCl pH 7.5, 100 mM NaCl, 0.165 mg/ml BSA, 2.4% DMSO, 1 mM NADH, 0.03% T-20, and 300 nM (9,10)^3H-stearoyl CoA (Perkin-Elmer). Reactions were initiated upon the addition of 4 ug/ml SCD microsomes. Incubations were terminated after 25 minutes at room temperature with cold 6% TCA. After standing 10 minutes at 4° C., samples were centrifuged 15 minutes at 4000 rpm to pellet precipitated protein. Supernatants were added to microtiter plates containing suspensions of activated charcoal (Darco G-60, Fisher Scientific) and mixed by inversion. Plates were then centrifuged to separate ^3H—H2O product from charcoal-bound reactants. Supernatants were quantitated in a Perkin Elmer Topcount 384 after solubilization in ScintiSafe Plus 50% (Fisher Scientific).
Inhibition (%) of SCD activity by compounds was calculated according to the following formula: % Inhibition=100*[1−(CPMsample−CPMblank)/(CPMtotal−CPMblank)]

Compound	IC50 [nM]
Cc1ccc(COc2ccc(-c3cc(C(N)=O)on3)cc2)cc1C [Example 4, 3-[4-(3,4-Dimethyl-benzyloxy)-phenyl]-isoxazole-5-carboxylic acid amide]	2700
NC(=O)c1cc(-c2ccc(OCc3c(Cl)cccc3Cl)cc2)no1 [Example 6, 3-[4-(2,6-Dichloro-benzyloxy)-phenyl]-isoxazole-5-carboxylic acid amide]	2600
NC(=O)c1cc(-c2ccc(OCc3ccccc3Cl)cn2)no1 [Example 14, 3-[5-(2-Chloro-benzyloxy)-pyridin-2-yl]-isoxazole-5-carboxylic acid amide]	1400
NC(=O)c1cc(-c2ccc(OCc3cccc(C(F)(F)F)c3)cc2)no1 [Example 17, 3-[4-(3-Trifluoromethyl-benzyloxy)-phenyl]-isoxazole-5-carboxylic acid amide]	1400
NC(=O)c1cc(-c2ccc(COc3cccc(Cl)c3)cc2)no1 [Example 24, 3-[4-(3-Chloro-phenoxymethyl)-phenyl]-isoxazole-5-carboxylic acid amide]	290
Cc1ccccc1OCc1ccc(-c2cc(C(N)=O)on2)cc1 [Example 26, 3-(4-o-Tolyloxymethyl-phenyl)-isoxazole-5-carboxylic acid amide]	66
Cc1cccc(OCc2ccc(-c3cc(C(N)=O)on3)cc2)c1 [Example 27, 3-(4-m-Tolyloxymethyl-phenyl)-isoxazole-5-carboxylic acid amide]	560
COc1ccccc1OCc1ccc(-c2cc(C(N)=O)on2)cc1 [Example 28, 3-[4-(2-Methoxy-phenoxymethyl)-phenyl]-isoxazole-5-carboxylic acid amide]	170
COc1cccc(OCc2ccc(-c3cc(C(N)=O)on3)cc2)c1 [Example 29, 3-[4-(3-Methoxy-phenoxymethyl)-phenyl]-isoxazole-5-carboxylic acid amide]	340
COc1ccc(OCc2ccc(-c3cc(C(N)=O)on3)cc2)cc1 [Example 30, 3-[4-(4-Methoxy-phenoxymethyl)-phenyl]-isoxazole-5-carboxylic acid amide]	3300
Cc1cccc(C)c1OCc1ccc(-c2cc(C(N)=O)on2)cc1 [Example 31, 3-[4-(2,6-Dimethyl-phenoxymethyl)-phenyl]-isoxazole-5-carboxylic acid amide]	1900
CC(C)c1ccccc1OCc1ccc(-c2cc(C(N)=O)on2)cc1 [Example 32, 3-[4-(2-Isopropyl-phenoxymethyl)-phenyl]-isoxazole-5-carboxylic acid amide]	380
NC(=O)c1cc(-c2ccc(COc3ccccc3OC(F)(F)F)cc2)no1 [Example 33, 3-[4-(2-Trifluoromethoxy-phenoxymethyl)-phenyl]-isoxazole-5-carboxylic acid amide]	470
CC(C)(C)c1ccccc1OCc1ccc(-c2cc(C(N)=O)on2)cc1 [Example 35, 3-[4-(2-tert-Butyl-phenoxymethyl)-phenyl]-isoxazole-5-carboxylic acid amide]	650
NC(=O)c1cc(-c2ccc(COc3ccccc3C(F)(F)F)cc2)no1 [Example 36, 3-[4-(2-Trifluoromethyl-phenoxymethyl)-phenyl]-isoxazole-5-carboxylic acid amide]	260
N#Cc1ccccc1OCc1ccc(-c2cc(C(N)=O)on2)cc1 [Example 37, 3-[4-(2-Cyano-phenoxymethyl)-phenyl]-isoxazole-5-carboxylic acid amide]	310
Cc1cccnc1OCc1ccc(-c2cc(C(N)=O)on2)cc1 [Example 38, 3-[4-(3-Methyl-pyridin-2-yloxymethyl)-phenyl]-isoxazole-5-carboxylic acid amide]	350
Cc1ccc(Cl)cc1OCc1ccc(-c2cc(C(N)=O)on2)cc1 [Example 40, 3-[4-(5-Chloro-2-methyl-phenoxymethyl)-phenyl]-isoxazole-5-carboxylic acid amide]	140
Cc1c(Cl)cccc1OCc1ccc(-c2cc(C(N)=O)on2)cc1 [Example 41, 3-[4-(3-Chloro-2-methyl-phenoxymethyl)-phenyl]-isoxazole-5-carboxylic acid amide]	390

Second part, the compound after the results:

IC50 [nM]	Compound
480	NC(=O)c1cc(-c2ccc(OCc3ccccc3SC(F)(F)F)cc2)no1 [Example 1, 3-[4-(2-Trifluoromethylsulfanyl-benzyloxy)-phenyl]-isoxazole-5-carboxylic acid amide]
580	NC(=O)c1cc(-c2ccc(OCc3ccccc3[S+]([O-])C(F)(F)F)cc2)no1 (stereo not drawn) [Example 2, 3-[4-(2-Trifluoromethanesulfinyl-benzyloxy)-phenyl]-isoxazole-5-carboxylic acid amide]
850	COc1ccccc1COc1ccc(-c2cc(C(N)=O)on2)cc1 [Example 3, 3-[4-(2-Methoxy-benzyloxy)-phenyl]-isoxazole-5-carboxylic acid amide]
970	N#Cc1ccccc1COc1ccc(-c2cc(C(N)=O)on2)cc1 [Example 5, 3-[4-(2-Cyano-benzyloxy)-phenyl]-isoxazole-5-carboxylic acid amide]
2300	NC(=O)c1cc(-c2ccc(OCc3ccc(F)c(F)c3)cc2)no1 [Example 7, 3-[4-(3,4-Difluoro-benzyloxy)-phenyl]-isoxazole-5-carboxylic acid amide]
560	NC(=O)c1cc(-c2ccc(OCc3ccccc3F)cc2)no1 [Example 8, 3-[4-(2-Fluoro-benzyloxy)-phenyl]-isoxazole-5-carboxylic acid amide]
460	Cc1ccccc1COc1ccc(-c2cc(C(N)=O)on2)cc1 [Example 9, 3-[4-(2-Methyl-benzyloxy)-phenyl]-isoxazole-5-carboxylic acid amide]
210	NC(=O)c1cc(-c2ccc(OCc3ccccc3OC(F)(F)F)cc2)no1 [Example 10, 3-[4-(2-Trifluoromethoxy-benzyloxy)-phenyl]-isoxazole-5-carboxylic acid amide]
410	NC(=O)c1cc(-c2ccc(OCc3ccccc3I)cc2)no1 [Example 11, 3-[4-(2-Iodo-benzyloxy)-phenyl]-isoxazole-5-carboxylic acid amide]
3100	NC(=O)c1cc(-c2ccc(OCc3c(F)cccc3Cl)cc2)no1 [Example 12, 3-[4-(2-Chloro-6-fluoro-benzyloxy)-phenyl]-isoxazole-5-carboxylic acid amide]
420	NC(=O)c1cc(-c2ccc(OCc3cc(F)ccc3Cl)cc2)no1 [Example 13, 3-[4-(2-Chloro-5-fluoro-benzyloxy)-phenyl]-isoxazole-5-carboxylic acid amide]
2400	NC(=O)c1cc(-c2ccc(OCc3cccnc3Cl)cc2)no1 [Example 15, 3-[4-(2-Chloro-pyridin-3-ylmethoxy)-phenyl]-isoxazole-5-carboxylic acid amide]
1500	NC(=O)c1cc(-c2ccc(OCc3cccc(Cl)c3)cc2)no1 [Example 18, 3-[4-(3-Chloro-benzyloxy)-phenyl]-isoxazole-5-carboxylic acid amide]
280	NC(=O)c1cc(-c2ccc(OCc3ccccc3Cl)cc2)no1 [Example 19, 3-[4-(2-Chloro-benzyloxy)-phenyl]-isoxazole-5-carboxylic acid amide]
170	NC(=O)c1cc(-c2ccc(OCc3ccccc3Br)cc2)no1 [Example 20, 3-[4-(2-Bromo-benzyloxy)-phenyl]-isoxazole-5-carboxylic acid amide]
180	NC(=O)c1cc(-c2ccc(OCc3ccccc3C(F)(F)F)cc2)no1 [Example 21, 3-[4-(2-Trifluoromethyl-benzyloxy)-phenyl]-isoxazole-5-carboxylic acid amide]
1500	CS(=O)(=O)c1ccccc1COc1ccc(-c2cc(C(N)=O)on2)cc1 [Example 22, 3-[4-(2-Methanesulfonyl-benzyloxy)-phenyl]-isoxazole-5-carboxylic acid amide]
1300	NC(=O)c1cc(-c2ccc(COc3ccc(Cl)cc3)cc2)no1 [Example 25, 3-[4-(4-Chloro-phenoxymethyl)-phenyl]-isoxazole-5-carboxylic acid amide]
210	CCc1ccccc1OCc1ccc(-c2cc(C(N)=O)on2)cc1 [Example 34, 3-[4-(2-Ethyl-phenoxymethyl)-phenyl]-isoxazole-5-carboxylic acid amide]
510	NC(=O)c1cc(-c2ccc(COc3ccccc3F)cc2)no1 [Example 39, 3-[4-(2-Fluoro-phenoxymethyl)-phenyl]-isoxazole-5-carboxylic acid amide]
